# Several values for one entry are separate records, joined by “and”; a condition that tells them apart may be missing. Equal values may be shown once. Inconclusive results and toxic doses are left out.
# System: BDF1 mice, P388 leukemia ip, median survival T/C
# Experiment: NCI In Vivo Anticancer Drug Screen. Data for tumor model P388 Leukemia (intraperitoneal) in B6D2F1 (BDF1) mice
# Settings: endpoint: median survival time, higher = longer survival
# Outline: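 Antitumour effect was judged in vivo: survival in drug-treated mice, normalised to that of vehicle-dosed controls, gives the reported T/C.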
# [1] = dose: 50.0 mg/kg/injection, schedule: Q01DX009 (ip), vehicle: saline with Tween-80
# [2] = dose: 100.0 mg/kg/injection, schedule: Q01DX009 (ip), vehicle: saline with Tween-80
# [3] = dose: 200.0 mg/kg/injection, schedule: Q01DX009 (ip), vehicle: saline with Tween-80
# [4] = dose: 400.0 mg/kg/injection, schedule: Q01DX009 (ip), vehicle: saline with Tween-80
# [5] = dose: 100.0 mg/kg/injection, schedule: Q04DX003 (ip), vehicle: saline
# [6] = dose: 200.0 mg/kg/injection, schedule: Q04DX003 (ip), vehicle: saline
# [7] = dose: 25.0 mg/kg/injection, schedule: Q01DX009 (ip), vehicle: saline with Tween-80
# [8] = dose: 50.0 mg/kg/injection, schedule: Q04DX003 (ip), vehicle: saline with Tween-80
# [9] = dose: 100.0 mg/kg/injection, schedule: Q04DX003 (ip), vehicle: saline with Tween-80
# [10] = dose: 200.0 mg/kg/injection, schedule: Q04DX003 (ip), vehicle: saline with Tween-80
# [11] = dose: 12.5 mg/kg/injection, schedule: Q01DX009 (ip), vehicle: Klucel (hydroxypropylcellulose) (HPC)
# [12] = dose: 50.0 mg/kg/injection, schedule: Q04DX003 (ip), vehicle: Klucel (hydroxypropylcellulose) (HPC)
# [13] = dose: 50.0 mg/kg/injection, schedule: Q04DX003 (ip), vehicle: saline
# [14] = dose: 25.0 mg/kg/injection, schedule: Q01DX009 (ip), vehicle: Klucel (hydroxypropylcellulose) (HPC)
# [15] = dose: 50.0 mg/kg/injection, schedule: Q01DX009 (ip), vehicle: Klucel (hydroxypropylcellulose) (HPC)
# [16] = dose: 25.0 mg/kg/injection, schedule: Q04DX003 (ip), vehicle: saline with Tween-80
compound,measurement,setting,value
C1CN1P1(N2CC2)=NP(N2CC2)(N2CC2)=NP(N2CC2)(N2CC2)=N1,T/C,"dose: 0.61 mg/kg/injection, schedule: Q01DX009 (ip), vehicle: saline",109 % of control
same,T/C,"dose: 0.92 mg/kg/injection, schedule: Q01DX009 (ip), vehicle: saline",118 % of control
same,T/C,"dose: 2.1 mg/kg/injection, schedule: Q01DX009 (ip), vehicle: saline",154 % of control
same,T/C,"dose: 3.3 mg/kg/injection, schedule: Q01DX009 (ip), vehicle: saline",180 % of control and 203 % of control and 204 % of control
same,T/C,"dose: 5.0 mg/kg/injection, schedule: Q01DX009 (ip), vehicle: saline",190 % of control and 218 % of control
same,T/C,"dose: 7.5 mg/kg/injection, schedule: Q01DX009 (ip), vehicle: saline",265 % of control and 272 % of control and 153 % of control
N#Cc1cccc(O)c1,T/C,[1],104 % of control
same,T/C,[2],100 % of control
same,T/C,[3],109 % of control
Ic1ccc(N=Cc2cccs2)cc1,T/C,[1],117 % of control
same,T/C,[2],99 % of control
same,T/C,[3],97 % of control
same,T/C,[4],108 % of control
O=C(O)C1OC12CCCCC2 (stereo not given),T/C,[5],91 % of control
same,T/C,[6],91 % of control
same,T/C,"dose: 400.0 mg/kg/injection, schedule: Q04DX003 (ip), vehicle: saline",91 % of control
Clc1nc2nc(Cl)n(Cl)c2nc1Cl,T/C,"dose: 12.5 mg/kg/injection, schedule: Q01DX006 (ip), vehicle: saline with Tween-80",100 % of control
same,T/C,"dose: 25.0 mg/kg/injection, schedule: Q01DX006 (ip), vehicle: saline with Tween-80",91 % of control
same,T/C,[7],86 % of control
same,T/C,"dose: 25.0 mg/kg/injection, schedule: Q01DX009 (ip), vehicle: water",109 % of control
same,T/C,"dose: 50.0 mg/kg/injection, schedule: Q01DX006 (ip), vehicle: saline with Tween-80",109 % of control
same,T/C,[1],86 % of control
same,T/C,[8],105 % of control
same,T/C,"dose: 100.0 mg/kg/injection, schedule: Q01DX009 (ip), vehicle: water",111 % of control
same,T/C,[9],105 % of control
same,T/C,"dose: 200.0 mg/kg/injection, schedule: Q01DX009 (ip), vehicle: water",116 % of control
same,T/C,[10],112 % of control
CCCCCC#CC1OC12CCCCC2 (stereo not given),T/C,[1],124 % of control
same,T/C,[2],119 % of control
same,T/C,[3],102 % of control
CC1CC2C(CC1=O)C(C)(C)CCC2(C)C (stereo not given),T/C,"dose: 100.0 mg/kg/injection, schedule: Q01DX009 (ip), vehicle: Klucel (hydroxypropylcellulose) (HPC)",109 % of control
same,T/C,"dose: 200.0 mg/kg/injection, schedule: Q01DX009 (ip), vehicle: Klucel (hydroxypropylcellulose) (HPC)",104 % of control
same,T/C,"dose: 264.0 mg/kg/injection, schedule: Q04DX003 (ip), vehicle: Klucel (hydroxypropylcellulose) (HPC)",104 % of control and 109 % of control
same,T/C,"dose: 400.0 mg/kg/injection, schedule: Q01DX009 (ip), vehicle: Klucel (hydroxypropylcellulose) (HPC)",86 % of control
same,T/C,"dose: 400.0 mg/kg/injection, schedule: Q04DX003 (ip), vehicle: Klucel (hydroxypropylcellulose) (HPC)",104 % of control
C[P+](Cc1ccc([N+](=O)[O-])cc1)(c1ccccc1)c1ccccc1,T/C,"dose: 1.56 mg/kg/injection, schedule: Q01DX009 (ip), vehicle: Klucel (hydroxypropylcellulose) (HPC)",96 % of control
same,T/C,"dose: 3.12 mg/kg/injection, schedule: Q01DX009 (ip), vehicle: Klucel (hydroxypropylcellulose) (HPC)",88 % of control
same,T/C,[11],89 % of control
same,T/C,"dose: 12.5 mg/kg/injection, schedule: Q04DX003 (ip), vehicle: Klucel (hydroxypropylcellulose) (HPC)",100 % of control
same,T/C,[12],104 % of control
CC(C)NC(=O)OCc1c(COC(=O)NC(C)C)c(-c2ccc(Cl)c(Cl)c2)n2c1CCC2,T/C,"dose: 12.5 mg/kg/injection, schedule: Q01DX009 (ip), vehicle: other",204 % of control
same,T/C,"dose: 25.0 mg/kg/injection, schedule: Q01DX009 (ip), vehicle: other",214 % of control
O=C(Nc1nnc(C(F)(F)F)s1)c1c(F)cccc1F,T/C,[1],92 % of control
CC(=O)OCC(=O)[C@@]1(O)CC[C@H]2[C@@H]3C[C@H](F)C4=CC(=O)CC[C@]4(C)[C@H]3[C@@H](O)C[C@@]21C,T/C,"dose: 12.5 mg/kg/injection, schedule: Q01DX009 (ip), vehicle: saline with Tween-80",109 % of control
same,T/C,[7],118 % of control
same,T/C,[1],118 % of control
COc1cc(Cc2nccc3cc(OC)c(OC)cc23)c([N+](=O)[O-])cc1OC,T/C,"dose: 100.0 mg/kg/injection, schedule: Q04DX003 (ip), vehicle: saline sonified",90 % of control
same,T/C,"dose: 200.0 mg/kg/injection, schedule: Q04DX003 (ip), vehicle: saline sonified",95 % of control
same,T/C,"dose: 400.0 mg/kg/injection, schedule: Q04DX003 (ip), vehicle: saline sonified",90 % of control
OC1(c2ccncc2)C=CCC1 (stereo not given),T/C,"dose: 25.0 mg/kg/injection, schedule: Q04DX002 (ip), vehicle: saline with Tween-80",100 % of control
same,T/C,"dose: 50.0 mg/kg/injection, schedule: Q04DX002 (ip), vehicle: saline with Tween-80",106 % of control
same,T/C,"dose: 100.0 mg/kg/injection, schedule: Q04DX002 (ip), vehicle: saline with Tween-80",97 % of control
Fc1ccc(C(Cl)Cl)cc1,T/C,"dose: 100.0 mg/kg/injection, schedule: Q01DX009 (ip), vehicle: saline",104 % of control
same,T/C,"dose: 200.0 mg/kg/injection, schedule: Q01DX009 (ip), vehicle: saline",109 % of control
same,T/C,"dose: 400.0 mg/kg/injection, schedule: Q01DX009 (ip), vehicle: saline",118 % of control
CN(C)CC(=O)N/N=C\c1ccc([N+](=O)[O-])s1,T/C,"dose: 25.0 mg/kg/injection, schedule: Q04DX003 (ip), vehicle: saline",87 % of control
same,T/C,[13],87 % of control
same,T/C,[5],91 % of control
C=[CH][Sn][CH2]CCC,T/C,[11],100 % of control
same,T/C,[14],103 % of control
same,T/C,[15],99 % of control
CCOc1ccc(NC(=S)N(C)C)cc1,T/C,[1],90 % of control
same,T/C,[2],86 % of control
O=C(O)CC1SC(=S)N(c2ccccc2)C1=O (stereo not given),T/C,[1],101 % of control
same,T/C,[2],105 % of control
C/C=C1\C[N+]2(C)CCC34c5ccccc5NC32C(O)CC1C4(CO)C(=O)OC (stereo not given),T/C,"dose: 2.0 mg/kg/injection, schedule: Q01DX009 (ip), vehicle: saline with Tween-80",98 % of control
same,T/C,"dose: 4.0 mg/kg/injection, schedule: Q01DX009 (ip), vehicle: saline with Tween-80",93 % of control
same,T/C,"dose: 8.0 mg/kg/injection, schedule: Q01DX009 (ip), vehicle: saline with Tween-80",94 % of control
Oc1ccc(O)cc1,T/C,"dose: 25.0 mg/kg/injection, schedule: Q04DX003 (ip), vehicle: Klucel (hydroxypropylcellulose) (HPC)",106 % of control
same,T/C,"dose: 50.0 mg/kg/injection, schedule: Q01DX009 (ip), vehicle: saline",112 % of control
same,T/C,[12],110 % of control
same,T/C,"dose: 66.0 mg/kg/injection, schedule: Q01DX009 (ip), vehicle: saline",100 % of control
same,T/C,"dose: 100.0 mg/kg/injection, schedule: Q04DX003 (ip), vehicle: Klucel (hydroxypropylcellulose) (HPC)",112 % of control
CCCN1c2ccccc2Sc2ccccc21,T/C,[16],100 % of control
same,T/C,[8],90 % of control
same,T/C,[9],90 % of control
same,T/C,[10],90 % of control
CCCCNC(C)(C)C(SSC(c1cccs1)C(C)(C)NCCCC)c1cccs1 (stereo not given),T/C,[7],100 % of control
same,T/C,[16],109 % of control
same,T/C,[1],100 % of control
same,T/C,[8],118 % of control
same,T/C,[9],118 % of control
O=S(=O)(O)c1cc(O)c2cc(Nc3ccccc3)ccc2c1,T/C,[13],104 % of control
same,T/C,[5],113 % of control
same,T/C,[6],109 % of control
O=[N+]([O-])c1ccc(N=NNc2ccc(N=Nc3ccccc3)cc2)cc1,T/C,[11],109 % of control
same,T/C,[14],118 % of control
same,T/C,[15],95 % of control
same,T/C,"dose: 75.0 mg/kg/injection, schedule: Q01DX009 (ip), vehicle: Klucel (hydroxypropylcellulose) (HPC)",100 % of control
same,T/C,"dose: 115.0 mg/kg/injection, schedule: Q01DX009 (ip), vehicle: Klucel (hydroxypropylcellulose) (HPC)",95 % of control
same,T/C,"dose: 170.0 mg/kg/injection, schedule: Q01DX009 (ip), vehicle: Klucel (hydroxypropylcellulose) (HPC)",90 % of control
Cc1ccc(NC(=O)C2CCC(C)(C(=O)O)C2(C)C)cc1 (stereo not given),T/C,[8],109 % of control
same,T/C,[9],90 % of control
same,T/C,[10],104 % of control
O=C1C=C2SCCN2C(=O)C1,T/C,[7],99 % of control
same,T/C,[1],99 % of control and 109 % of control
same,T/C,[2],97 % of control and 124 % of control
same,T/C,[3],105 % of control and 114 % of control
Cc1cnc2c(C)cccc2c1/C=C/c1ccc(N(C)C)cc1,T/C,[1],116 % of control
same,T/C,[2],116 % of control
same,T/C,[3],103 % of control
CCN(CC)CCC(=O)c1ccccc1,T/C,[1],95 % of control
COC(=O)C1CC2C(CCC3C(C)(C(=O)OC)CCCC23C)C(=O)C1(O)C(C)C (stereo not given),T/C,[2],100 % of control
same,T/C,[3],100 % of control
same,T/C,[4],90 % of control
